Measured values reported in patent US10292390B2, “Inhibition and dispersion of bacterial biofilms with 2-aminobenzimidazole derivatives” (WISCONSIN ALUMNI RESEARCH FOUNDATION, priority 2011, dated 2019).
Read-outs that look alike come from different tables or passages of the source.

Legend:
[1] = tested on: preformed P. aeruginosa biofilms; assay: biofilm dispersion assay (preformed 24 h-old biofilms, crystal violet); type: cell-based, Pseudomonas aeruginosa; settings: for dispersion of preformed biofilm / DC50: 24 h-old biofilm, additional 24 h with compound; for effect on final OD600 measurement during dispersion: 48 h; for DC50: Pseudomonas aeruginosa, read-out: half maximal dispersion DC50
Description: Compounds capable of not only inhibiting biofilm growth, but also dispersing preformed biofilms, are of particular value for a range of clinical and other applications. The ability of compounds 7 and 21 to disperse 24 h-old P. aeruginosa biofilms was tested using the crystal violet staining assay (FIG. 1B). Biofilms were allowed to develop in the absence of compound for 24 h, after which non-biofilm material was removed by washing with buffer and fresh media with compound was added. Biofilm was quantified after an additional 24 h, and the amount of dispersed biofilm was determined via comparison of the amount of biofilm at 48 h in the presence of compound versus the amount of biofilm at 24 h in the absence of compound. 2-ABIs 7 and 21 were capable of strongly dispersing P. aeruginosa biofilms (˜80%), with half maximal dispersion DC50 values of 84 μM and 92 μM, respectively (FIG. 1B).
Compounds 7 and 21 were evaluated for their ability to disperse preformed P. aeruginosa biofilms. For biofilm dispersion assessment, the static CV biofilm assay described above was modified in order to introduce compound to preformed biofilm for an additional incubation period. Solvent evaporation delivery of compound was not possible in this format; thus, stock solutions of compounds 7 and 21 were prepared in 95:5 M9+:LB media. Stocks of 7 and 21 were prepared at 3.16 mM and 1 mM, respectively (21 was insoluble at 3.16 mM). These stocks were diluted in series to obtain final concentrations as follows: 10^x μM where x=3.5 (7 only), 3, 2.5, 2, 1.5 (21 only), 1, 0, −1, or −2. Biofilms were allowed to form in microtiter plates in the absence of compound for 24 h, after which non-biofilm material was removed by dumping and washing as normal with sterile PBS. After the second washing, 200 μL of fresh 95:5 M9+:LB media containing compound at various concentrations was added to the wells, and the plates were incubated at 37° C. for an additional 24 h. One set of wells was left empty in order to assess the amount of biofilm present after the first 24 h incubation, while another set of wells was given media without compound to assess the amount of biofilm at 48 h. […] After the second 24 h incubation, non-biofilm material was removed by dumping and washing 4× with PBS (the additional washing at 48 h was found necessary to completely remove detached Int biofilm that had settled over the SA biofilm; data not shown). Biofilm was fixed and quantified with CV as described above. The amount of dispersed biofilm was determined via comparison of the amount of biofilm at 48 h in the presence of compound versus the amount of biofilm in the “no compound” positive control at 24 h. A higher degree of error was often observed with this assay format due to the additional incubation and washing steps; thus, all compounds were tested in replicates of 6 wells.
DC50 values for biofilm dispersion by 7 and 21 were calculated using a sigmoidal curve fit (three parameters) and are reported with a 95% Cl.

[2] = tested on: P. aeruginosa PAO1 biofilm; assay: crystal violet static biofilm inhibition assay; type: cell-based, Pseudomonas aeruginosa; settings: for IC50: Pseudomonas aeruginosa, PAO1
Description: Stilbenes 1, 2, and 4a-b were tested for inhibition of biofilm formation in a wild-type P. aeruginosa strain (PAO1) at 500 μM using standard static biofilm growth assays.
Biofilms were grown in a modified M9 minimal media in 96-well microtiter plates, and crystal violet staining of the surface-associated biomass was used to quantify biofilm growth at 12 and 24 h (see The Examples).
A modified version of the widely used crystal violet (CV) microtiter plate biofilm assay, first described by Christensen et al. and later popularized by O'Toole et al., [57] was used in this study and is described in detail below.
Compounds to be evaluated for biofilm modulatory activity were added to the assay microtiter plates by means of a “solvent evaporation” delivery. This delivery method involves preparation of compound stock solutions, addition of stocks to microtiter plates at appropriate volumes to obtain target molar quantities per well, evaporation of the solvent, and re-solubilization of the compound in the final assay medium upon inoculum addition. This delivery method was adopted to avoid the biofilm inhibitory effects observed with an “organic solvent-to-solution” delivery method (e.g., DMSO-to-media; data not shown), which is more commonly done in small molecule screens. EtOH was chosen as the solvent for solvent evaporation delivery in this study based on the chemical resistance limitations of polystyrene microtiter plates. Prior to each experiment, EtOH stock solutions of compounds being evaluated were prepared, diluted, and added to microtiter plates at varied volumes to obtain a target final concentration per well upon inoculum addition. Plates were incubated at 37° C. to evaporate EtOH and sterilized in a Baker SterilGARD III Advance Biological Safety Cabinet by UV-C germicidal irradiation for 30 min (lids removed). EtOH only was added to wells designated as “no compound” positive controls (Pos. Con.) and “no bacteria” negative controls (note, controls lacking bacteria yielded no significant staining in the CV assay (data not shown)). The outer wells were never used for test samples as evaporation and significant deviations in growth were observed; thus, outer wells were filled with sterile 18 MΩ H2O to minimize these effects.
Bacterial samples for biofilm assessment were prepared by first streaking a freezer stock of P. aeruginosa PAO1 on an LB/agar plate and incubating at 37° C. for ˜16 h. Single colonies were selected and used to inoculate LB medium (10 mL) in a 25 mL Erlenmeyer flask. The culture was grown on an incubator-shaker (200 rpm) at 37° C. for ˜16 h to an OD600 of ˜1.0. Overnight cultures were gently decanted into falcon tubes to minimize transfer of biofilm produced during overnight growth. An inoculating culture was prepared by centrifuging an aliquot of overnight culture at 3,000 rpm for 10 min, removal of the supernatant, and then re-suspending the pellet in 95:5 M9+:LB at 10-fold the initial volume (effecting a 1-in-10 dilution; OD600 ˜0.1-0.2). Using a multi-channel pipette, this culture was added to test microtiter plates in 200 μL aliquots. The well contents were mixed using a 10 μL multi-channel pipette in a swirling motion; insoluble compound samples were noted and later excluded from the data set as needed.
Plates were covered with the provided lid and incubated statically at 37° C. for 12-24 h. Maximal biofilm formation is obtained at 24 h, after which the amount of biofilm declines unless fresh nutrients are provided. After incubation, the OD600 was measured, and the bacterial suspension was removed by inverting and shaking the plate over a waste pan and then taping on a paper towel (process termed “dumping”). Non-biofilm associated biomaterial was removed by adding 225 μL PBS and dumping (process termed “washing”) and then repeating this washing process. Biofilm was fixed to the microtiter plates by uncovering the plate and thermally dehydrating at 37° C. […]

[3] = 12 h incubation, CV assay, read-out: 12 h biofilm IC50
[4] = 24 h incubation, CV assay, read-out: 24 h biofilm IC50
[5] = added exogenously to solution, read-out: IC50 for biofilm inhibition
[6] = 24 h, read-out: IC50 for biofilm inhibition
[7] = Table 1, crystal violet, read-out: IC50, P. aeruginosa PAO1 biofilm inhibition

Row | Compound | dispersion of preformed biofilm [1] [%] | effect on final OD600 measurement during dispersion [1] | DC50 [1] [µM] | concentrations at which inhibitor (not activator) of biofilm formation ([2]; P. aeruginosa) [mM] | IC50 [2, 3] [µM] | IC50 [2, 4] [µM] | IC50 [2, 5] [µM] | IC50 [2, 6] [µM] | IC50 [2, 7] [µM] | fold more active than parent compound 7 ([2]; biofilm inhibition IC50) [fold] | inhibition of biofilm formation ([2]; 24 h) [%]
1 | Cc1cc2nc(N)[nH]c2cc1C [Compound 21, 5,6-Dimethyl-2-aminobenzimidazole] | ~80 | without significantly affecting the final OD600 measurement | 92 | ≤ 3.2 | 4.3 | 4 | 4 | 4 | 4 | ~10 | –
2 | Nc1nc2ccccc2[nH]1 [Compound 7, 2-aminobenzimidazole] | ~80 | without significantly affecting the final OD600 measurement | 84 | – | 50.5 | 46.8 | 47 | 47 | 47 | – | 94
